The subject of the assay is CEM cells HIV-1 protection, formazan growth assay. Briefly: NCI AIDS Antiviral Assay. The conditions noted are these: for IC50: measured here: growth of uninfected CEM cells. In short, it runs like this:
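Category rules: moderately active means at least 50% protection on retest, and confirmed active means 100% protection reproducibly. The underlying data came from a formazan growth assay in HIV-1-infected CEM cells.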

Active and inactive are the calls of the source.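 The calls were made as follows: active = compounds giving half or more protection of infected cells from virus-caused growth loss, again on retest; inactive = the rest.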 Where a SMILES comes first, the peptide text is derived from it. The star is where a group is joined. Cbz = O=C(OCc1ccccc1)* A value given as a limit tells only on which side of the number the result lay.

As usually defined, the EC50 is the concentration needed to bring the measured effect to its halfway point. The term IC50 denotes the midpoint of a concentration-inhibition curve. Lower therefore signals inhibition by little substance. Turning to `CCOC(=O)C1=C(NC)OC/C1=N\NC(=O)c1ccccc1O`, the EC50 is more than 93.3 µM and the IC50 is 14.1 µM.
The like results for `COc1cc2nc(CC(O)c3nc4cc(OC)c(OC)cc4[nH]3)[nH]c2cc1OC` (centres undefined) were, in that order, more than 200 µM and 17.4 µM.
Turning to `CCSc1sc(=Nc2ccc(N=c3sc(C)c(SC)s3)cc2)sc1-c1ccc(C)cc1`, the outcome was inactive.
For the molecule `Cc1ccc(C2SC(N)=Nc3c2c(C)nn3C(=O)c2ccccc2O)cc1` (centres undefined), the EC50 is more than 20 µM and the IC50 came out at 0.603 µM.
On to `O=C1c2cc3c(cc2CC1Br)CCC3` (centres undefined), for which the EC50 was more than 20 µM and the IC50 came out at 0.38 µM.
As for `C(/C=C/Nc1ccc(-c2ccccc2)cc1)=Nc1ccc(-c2ccccc2)cc1`, the EC50 is more than 200 µM and the IC50 was more than 200 µM.
Take `N#C/C(=C\c1ccc(C#N)cc1)c1ccccc1`: the EC50 was more than 11.7 µM and the IC50 is more than 11.7 µM.
In the case of `C#CC1(O)CCC2C3CCc4cc(OC)ccc4C3CCC21C` (centres undefined), the EC50 is more than 200 µM and the IC50 is 74.1 µM.
As to `O=C1NC(=O)C(C(=O)C(=O)Nc2cc(Cl)ccc2Cl)C(=O)N1`, the EC50 was more than 380 µM and the IC50 is 302 µM.
As for `O=C(c1ccc(Cl)cc1)N(C(=S)OCc1ccccn1)c1ccccc1`, the EC50 was more than 200 µM and the IC50 was determined as 83.2 µM.
As for `O=C(O)c1cc(O)c(Br)c(O)c1N=Nc1ccc(/C=C/c2ccc(N=Nc3c(C(=O)O)cc(O)c(Br)c3O)cc2S(=O)(=O)O)c(S(=O)(=O)O)c1`, the EC50 was 166 µM and the IC50 is more than 200 µM.
The like results for `CC1(C)N=C(N)N=C(N)N1c1cccc(/C=C(\C#N)c2ccccc2)c1` were, in that order, more than 200 µM and 4.79 µM.
As to `CCC[CH2][Sn]1([CH2]CCC)[O]C(=O)c2ccc(C)cc2[O]1`, the result was inactive.
With `C=CP(=S)(c1ccccc1)c1ccccc1`, the EC50 is more than 56.2 µM and the IC50 was more than 56.2 µM.
As for `C[C@]12CC=CC(=O)[C@@]1(C)CCC(=O)C2`, the result was inactive.
`Oc1ccc(CCl)c2cccnc12`: the EC50 was more than 562 µM and the half-maximal inhibitory concentration (IC50) amounted to 10.2 µM.
As to `CC(C)C(NC(=O)C1CCCN1C(=O)OCc1ccccc1)C(=O)O` (stereo not drawn) (Cbz-Pro-Val-OH; configuration not given here), the EC50 was more than 724 µM and the IC50 was more than 724 µM.
On to `C=C1c2nc3ccccc3n2C=C(c2ccccc2)N1c1ccc(Cl)cc1`, for which the EC50 was more than 200 µM and the IC50 worked out at 32.4 µM.
`[O-][n+]1onc2c1CCC(=N\O)/C2=N/Nc1ccccc1`: the EC50 was more than 200 µM and the IC50 came out at 155 µM.
Take `CNC(=S)SSSC(=S)NC`: the outcome was inactive.
Take `COc1ccc(N2C(=O)C(=O)N(c3ccc(N=Nc4ccccc4)cc3)C2=S)cc1`: the EC50 is more than 200 µM and the IC50 is 11.7 µM.
As to `CC1(C)CN=C(Nc2ccc(F)c(Cl)c2)S1`, the EC50 is more than 200 µM and the IC50 is more than 200 µM.
For `O=C1N(C2CCCCC2)CC2(Cc3ccccc3)c3ccccc3NC12O` (centres undefined), the EC50 is more than 20 µM and the IC50 is more than 20 µM.
Take `O=C(O)CSc1cc(-c2ccc(Cl)cc2)s[s+]1`: the EC50 is more than 200 µM and the 50% inhibitory concentration (IC50) is more than 200 µM.
For `CCNC(=O)Cc1nc2c(=O)[nH]cnc2n1C1OC(CO)C(O)C1O` (centres undefined), the EC50 was more than 200 µM and the IC50 is more than 200 µM.
Turning to `C[C@@H](c1ccccc1)N1CN(C(=O)OCc2ccccc2)C(CO)C1=O` (some centres undefined), the EC50 was more than 200 µM and the IC50 came to 186 µM.
On to `Cc1cc(=O)oc2c(C)c3oc(CBr)cc3cc12`, for which the EC50 is more than 200 µM and the IC50 came to 0.447 µM.
The like results for `CCOC(=O)c1[nH]n(-c2ccccc2)c(=O)c1/C=N/C(=S)Nc1ccc(Cl)cc1Cl` were, in that order, more than 200 µM and more than 200 µM.
For `CCOC(=O)C(=Cn1c(=S)[nH]c2cc(C)ccc21)C(=O)OCC`, the EC50 is more than 200 µM and the IC50 is more than 200 µM.
Take `CC(/C=N\NC(=S)N1CCCCC1)=N/NC(=S)N1CCCCC1`: the EC50 is more than 200 µM and the IC50 stood at 1.78 µM.
Consider `O=C1CCC(=O)C(C(=O)CCC(=O)Nc2ccc(Cl)cc2)C1` (centres undefined), for which the result was inactive.
Consider `CCOC(=O)[C@H]1Nc2ccc(O)cc2C2c3ccccc3CC21` (some centres undefined), for which the EC50 is more than 302 µM and the IC50 was 56.2 µM.
With `COc1cc(CN=c2nc(N(C)C)ss2)cc(OC)c1OC`, the EC50 is more than 100 µM and the IC50 came out at 6.92 µM.
Turning to `CSc1nc(NC2OC(COC(C)=O)C(OC(C)=O)C(OC(C)=O)C2OC(C)=O)c(N=C(C)C(C)=O)c(=O)[nH]1` (centres undefined), the result was inactive.
Turning to `CC(=O)OC(Cn1cncn1)(Cn1cncn1)c1ccc(Cl)cc1Cl`, the EC50 is more than 200 µM and the IC50 was more than 200 µM.
For `CC(=O)CCCCCCCCCCCC[C@@H]1CC[C@H](C)[C@H](O)N1`, the EC50 was more than 21.9 µM and the IC50 was more than 21.9 µM.
As to `COc1cc2nncc(SCc3ccc(Cl)cc3)c2cc1OC`, the EC50 was more than 77.6 µM and the IC50 was more than 77.6 µM.
On to `CCCCC#CCC(C(=O)O)C(=O)O`, for which the EC50 was more than 1260 µM and the IC50 is more than 1260 µM.
Regarding `COC(=O)C1C/C(=C/N(C)C)C(=S)N1` (centres undefined), the EC50 is more than 200 µM and the IC50 was more than 200 µM.
Consider `CN(C)C=Nc1ccc2[nH]c3ccccc3c2c1`, for which the EC50 is more than 200 µM and the IC50 came out at 107 µM.
The like results for `CCCCCCCCCCCCCCCCCCSCC(C)(COP(=O)(O)OP(=O)(O)OCC1OC(n2cc(C)c(=O)[nH]c2=O)CC1N=[N+]=[N-])OC(=O)CCCCCCCCCCCCCCC` (centres undefined) were, in that order, 3.24 µM and 60.3 µM.
With `O=C(O)CC(NC(=O)C(F)(F)F)C(=O)NC1Cc2ccccc2OC1=O` (centres undefined), the EC50 was more than 200 µM and the IC50 was more than 200 µM.
On to `CCCCNC(=S)SSSSC(=S)NCCCC`, for which the EC50 was more than 200 µM and the IC50 is 11.2 µM.
For `Clc1cccc2nncc(N3CC3)c12`, the result was inactive.
Take `O=[N+]([O-])C(C(Cl)=C(Cl)Cl)=C(n1nnc2ccccc21)n1nnc2ccccc21`: the EC50 is more than 200 µM and the IC50 was 26.9 µM.
For `Cc1ccsc1/C=N/Nc1ncccn1`, the EC50 is more than 200 µM and the IC50 is more than 200 µM.
For the molecule `Cc1cccc(C)c1N=Nc1ccc(O)c(CN(C)C)c1`, the EC50 is more than 200 µM and the IC50 was 39.8 µM.
Take `CC(NO)/C(=N/O)c1ccco1` (centres undefined): the EC50 was more than 200 µM and the IC50 is more than 200 µM.
For the molecule `Cc1cccc(N=C2NC(=O)C(CC(=O)Nc3ccc(C)cc3C)S2)c1` (centres undefined), the EC50 was more than 26.9 µM and the IC50 is more than 26.9 µM.
For the molecule `CC1=C(C(=O)Nc2ccccc2)C(c2ccccc2Cl)C(C(=O)Nc2ccccc2)=C(C)N1`, the outcome was inactive.
For the molecule `CNC(=O)CCCN(C)C(=O)CCCCC(=O)N(C)C`, the EC50 is more than 200 µM and the IC50 is more than 200 µM.
With `O=C1c2ccc3c4ccccc4n(-c4ccccc4)c3c2C(=O)N1c1ccc(Cl)cc1`, the result was inactive.
Turning to `C/C(O)=C(/C=NC(=S)C(N)=S)C(=O)Nc1ccccc1`, the EC50 was more than 200 µM and the IC50 is 102 µM.
On to `O=C(CN1CCCCC1)OCOP(=O)(OCOC(=O)CN1CCCCC1)OCC1CCC(n2ccc(=O)[nH]c2=O)O1` (centres undefined), for which the EC50 was more than 100 µM and the IC50 is 36.3 µM.

Source of the values: PubChem BioAssay AID179 (DTP/NCI, 2004).
